According to article PMC3914206:

How the values were obtained:
panel of 442 kinases [1] = biological target: T1, panel of 442 kinases (Homo sapiens, UniProt Q00536); assay type: binding; settings: Compound Concentration 10 µM
T1 construct: purchased KINOMEscan
Description: (§1) We assessed the selectivity of members of this scaffold using the KINOMEscan methodology across a near comprehensive panel of 442 kinases [[18,27]].

panel of 442 kinases [2] = biological target: T2, panel of 442 kinases (Homo sapiens, UniProt Q9P1W9); assay type: binding; settings: Compound Concentration 10 µM
T2 construct: purchased KINOMEscan
T2 sequence (Q9P1W9 whole entry): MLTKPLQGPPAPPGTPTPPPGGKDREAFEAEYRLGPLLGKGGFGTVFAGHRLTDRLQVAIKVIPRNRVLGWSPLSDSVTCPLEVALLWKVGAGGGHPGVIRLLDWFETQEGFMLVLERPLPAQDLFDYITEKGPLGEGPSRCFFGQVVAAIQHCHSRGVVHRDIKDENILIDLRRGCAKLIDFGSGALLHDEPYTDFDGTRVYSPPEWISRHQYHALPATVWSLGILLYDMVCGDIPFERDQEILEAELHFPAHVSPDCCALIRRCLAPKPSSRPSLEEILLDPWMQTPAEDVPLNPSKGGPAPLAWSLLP
Description: as §1

T1 sequence (Q00536 whole entry): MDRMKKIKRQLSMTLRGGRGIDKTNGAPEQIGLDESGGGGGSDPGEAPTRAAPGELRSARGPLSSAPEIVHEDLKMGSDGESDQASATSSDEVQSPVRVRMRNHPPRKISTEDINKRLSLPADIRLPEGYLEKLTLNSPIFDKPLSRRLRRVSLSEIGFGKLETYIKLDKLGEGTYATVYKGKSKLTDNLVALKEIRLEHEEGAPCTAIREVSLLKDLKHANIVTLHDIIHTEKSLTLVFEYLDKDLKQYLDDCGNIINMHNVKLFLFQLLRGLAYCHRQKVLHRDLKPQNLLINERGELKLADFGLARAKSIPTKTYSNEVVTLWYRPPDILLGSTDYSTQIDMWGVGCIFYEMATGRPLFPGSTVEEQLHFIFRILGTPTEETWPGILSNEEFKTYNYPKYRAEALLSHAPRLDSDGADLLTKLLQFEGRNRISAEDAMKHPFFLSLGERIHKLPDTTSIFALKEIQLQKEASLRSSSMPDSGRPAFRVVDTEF

Row | Compound | KINOMEscan: PCTK1 (panel of 442 kinases [1]) | KINOMEscan: PIM2 (panel of 442 kinases [2])
1 | CCOc1cc(C(=O)N2CCC(N3CCN(C)CC3)CC2)ccc1Nc1ncc2c(n1)N(C1CCCC1)c1ccccc1C(=O)N2C [Compound 26] | 100 | 100
2 | COc1cc(C(=O)N2CCC(N3CCN(C)CC3)CC2)ccc1Nc1ncc2c(n1)N(C1CCCC1)c1ccccc1C(=O)N2C [Compound 25, 11-cyclopentyl-2-((2-methoxy-4-(4-(4-methylpiperazin-1-yl)piperidine-1-carbonyl)phenyl)amino)-5-methyl-5H-benzo[e]pyrimido[5,4-b][1,4]diazepin-6(11H)-one] | 100 | 100
3 | COc1cc(C(=O)N2CCC(N3CCN(C)CC3)CC2)ccc1Nc1ncc2c(n1)N1CCc3cccc(c31)C(=O)N2C [Compound 24] |  | 85
4 | COc1cc(C(=O)N2CCC(N3CCN(C)CC3)CC2)ccc1Nc1ncc2c(n1)N(C)c1ccccc1C(=O)N2C [15 (LRRK2-IN-1)] | 96 | 100
